The text below walks through data of ChEMBL document CHEMBL1150213, “Protein-tyrosine kinase inhibition: mechanism-based discovery of antitumor agents” (J Nat Prod, 1992).

pIC50: −log10 of the molar value. Converted amounts (≈) assume the structure as drawn. Where a SMILES comes first, the peptide text is derived from it. The star is where a group is joined. CH2Cl = ClC*

Test [1] deals with T1, Epidermal growth factor receptor (Homo sapiens, UniProt P00533).
For test [2], the target named is T2, Tyrosine-protein kinase transforming protein Abl (Abelson murine leukemia virus, UniProt P00521).
T2 sequence (P00521 whole entry): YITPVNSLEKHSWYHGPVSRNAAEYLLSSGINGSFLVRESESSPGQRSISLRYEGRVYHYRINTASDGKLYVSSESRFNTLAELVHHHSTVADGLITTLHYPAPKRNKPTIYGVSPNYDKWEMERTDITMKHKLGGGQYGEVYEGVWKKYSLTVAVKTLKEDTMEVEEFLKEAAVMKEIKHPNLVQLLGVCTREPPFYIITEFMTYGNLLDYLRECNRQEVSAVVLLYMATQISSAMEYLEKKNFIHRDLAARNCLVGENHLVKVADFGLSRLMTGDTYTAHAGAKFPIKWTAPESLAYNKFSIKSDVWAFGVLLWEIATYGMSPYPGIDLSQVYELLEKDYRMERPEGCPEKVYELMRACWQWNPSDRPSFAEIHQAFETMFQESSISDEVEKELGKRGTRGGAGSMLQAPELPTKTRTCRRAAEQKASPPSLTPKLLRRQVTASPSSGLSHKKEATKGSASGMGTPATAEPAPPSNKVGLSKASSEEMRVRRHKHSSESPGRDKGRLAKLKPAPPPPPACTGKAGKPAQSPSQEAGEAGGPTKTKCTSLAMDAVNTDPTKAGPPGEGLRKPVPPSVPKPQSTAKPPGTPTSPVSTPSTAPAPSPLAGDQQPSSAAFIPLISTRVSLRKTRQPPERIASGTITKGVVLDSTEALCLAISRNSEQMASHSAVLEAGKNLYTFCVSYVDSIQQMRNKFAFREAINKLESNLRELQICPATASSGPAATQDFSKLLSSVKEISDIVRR
Description: Inhibition of Abelson murine leukemia virus p60 v-abl

Test [3] concerns the target Proto-oncogene tyrosine-protein kinase Src (Homo sapiens, UniProt P12931).
Description: Inhibition of p60c-src expressed in chick embryo fibroblast
Test [4] in a line: Inhibition of p40 tyrosine kinase.
Test [5] deals with T1, Epidermal growth factor receptor. Nature of the test: Inhibition of EGFR in human A431 cells at 400 nmol/mg protein in absence of EGF. The format is cell-based. To be noted: A-431.
For test [6] the target is unchanged. Nature of the test: Inhibition of EGFR in human A431 cells at 400 nmol/mg protein in presence of EGF. The format is cell-based. The note with it: A-431.

T1 sequence (P00533 whole entry): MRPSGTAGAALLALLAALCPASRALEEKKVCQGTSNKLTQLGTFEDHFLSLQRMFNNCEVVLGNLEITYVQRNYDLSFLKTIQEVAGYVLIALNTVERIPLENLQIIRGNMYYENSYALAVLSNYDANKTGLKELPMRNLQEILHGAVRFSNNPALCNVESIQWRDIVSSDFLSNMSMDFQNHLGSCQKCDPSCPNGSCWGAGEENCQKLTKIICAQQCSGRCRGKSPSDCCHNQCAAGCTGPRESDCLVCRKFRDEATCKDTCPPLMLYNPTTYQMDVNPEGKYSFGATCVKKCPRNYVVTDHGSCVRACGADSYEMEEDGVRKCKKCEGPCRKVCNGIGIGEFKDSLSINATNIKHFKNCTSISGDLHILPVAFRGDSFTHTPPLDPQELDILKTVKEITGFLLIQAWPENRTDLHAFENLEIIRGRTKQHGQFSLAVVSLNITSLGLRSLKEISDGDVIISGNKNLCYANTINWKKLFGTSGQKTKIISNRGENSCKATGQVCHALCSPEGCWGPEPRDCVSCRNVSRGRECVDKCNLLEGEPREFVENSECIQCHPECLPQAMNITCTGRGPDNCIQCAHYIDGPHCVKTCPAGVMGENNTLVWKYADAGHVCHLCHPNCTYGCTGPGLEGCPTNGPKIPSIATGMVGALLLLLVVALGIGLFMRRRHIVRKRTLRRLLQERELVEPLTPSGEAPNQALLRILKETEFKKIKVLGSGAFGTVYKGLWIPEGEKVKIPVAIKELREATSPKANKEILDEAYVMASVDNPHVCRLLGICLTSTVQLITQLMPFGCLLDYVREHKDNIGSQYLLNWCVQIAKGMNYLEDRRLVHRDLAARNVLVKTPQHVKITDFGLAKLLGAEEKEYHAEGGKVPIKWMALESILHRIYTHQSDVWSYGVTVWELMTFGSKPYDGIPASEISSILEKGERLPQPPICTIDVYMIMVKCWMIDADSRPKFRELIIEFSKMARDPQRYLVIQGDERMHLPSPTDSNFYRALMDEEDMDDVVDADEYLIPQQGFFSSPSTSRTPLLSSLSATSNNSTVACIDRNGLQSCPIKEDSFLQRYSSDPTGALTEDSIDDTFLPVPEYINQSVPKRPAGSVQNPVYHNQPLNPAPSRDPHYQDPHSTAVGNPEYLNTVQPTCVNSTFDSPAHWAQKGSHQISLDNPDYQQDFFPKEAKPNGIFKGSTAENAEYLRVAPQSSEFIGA
Chain of Proto-oncogene tyrosine-protein kinase Src (P12931 2-536 limits assumed): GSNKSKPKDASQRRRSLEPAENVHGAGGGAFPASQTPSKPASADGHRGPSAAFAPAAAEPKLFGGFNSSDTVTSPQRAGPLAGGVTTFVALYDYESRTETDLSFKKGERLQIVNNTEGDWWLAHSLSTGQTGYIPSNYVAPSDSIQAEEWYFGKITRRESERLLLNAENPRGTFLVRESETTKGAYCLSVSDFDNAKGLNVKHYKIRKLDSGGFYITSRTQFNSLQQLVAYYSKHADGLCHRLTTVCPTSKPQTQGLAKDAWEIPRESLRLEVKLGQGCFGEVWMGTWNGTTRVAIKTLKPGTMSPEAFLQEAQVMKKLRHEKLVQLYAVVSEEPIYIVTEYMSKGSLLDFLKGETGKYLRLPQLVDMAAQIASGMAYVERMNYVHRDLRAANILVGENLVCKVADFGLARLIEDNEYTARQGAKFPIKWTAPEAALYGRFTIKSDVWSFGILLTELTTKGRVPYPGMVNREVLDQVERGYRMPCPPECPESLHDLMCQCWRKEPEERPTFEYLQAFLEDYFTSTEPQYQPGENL

As for `COc1cc(/C=C/[N+](=O)[O-])ccc1OS(=O)(=O)c1ccc(C(=O)O)cc1`, the negative-log IC50 (pIC50) in test [1] is 5.52; in test [2], 4.40.
`Nc1nc2c(ncn2[C@@H]2O[C@H](COP(=O)(O)OP(=O)(O)OP(=O)(O)OP(=O)(O)OC[C@H]3O[C@@H](n4cnc5c(=O)[nH]c(N)nc54)[C@H](O)[C@@H]3O)[C@@H](O)[C@H]2O)c(=O)[nH]1` gave a pIC50 in test [3] of less than 4.00.
For `O=C(O)c1ccc(S(=O)(=O)Oc2ccc(/C=C/[N+](=O)[O-])cc2)cc1O`, the pIC50 was 7.30 in test [1] and 4.52 in test [2].
On the same counts, the results for `NCCNC(=O)c1ccc(S(=O)(=O)Oc2ccc(/C=C/[N+](=O)[O-])cc2)cc1` are 5.30 and less than 5.30.
`C[C@H](NC(=O)c1ccc(S(=O)(=O)Oc2ccc(/C=C/[N+](=O)[O-])cc2)cc1)C(=O)N[C@@H](C)C(=O)NCCN`: the negative-log IC50 (pIC50) in test [1] and in test [2] was 4.70 throughout.
Consider `Cc1ccc([C@@H]2CC(=O)c3c(O)cc(O)cc3O2)cc1`, for which the IC50 in test [4] turned out to be 3 ×10¹ ug/ml.
Molecule `Nc1ncnc2c1ncn2[C@@H]1O[C@H](COP(=O)(O)OP(=O)(O)OP(=O)(O)OP(=O)(O)O)[C@@H](O)[C@H]1O` gave a pIC50 in test [3] of 5.05.
In the case of `COC(=O)c1ccc(S(=O)(=O)Oc2ccc(/C=C/[N+](=O)[O-])cc2)cc1O`, the results for the pIC50 in test [1] and in test [2] were 5.70 and less than 4.00, respectively.
On the same counts, the results for `CCCCNC(=O)c1ccc(S(=O)(=O)Oc2ccc(/C=C/[N+](=O)[O-])cc2)cc1` are 5.30 and less than 4.00.
The matching figures for `COC(=O)c1ccc(S(=O)(=O)Oc2ccc(/C=C/[N+](=O)[O-])cc2)cc1`: 5.70 and less than 4.00.
The matching figures for `O=C(O)c1ccc(S(=O)(=O)Oc2ccc(/C=C/[N+](=O)[O-])cc2)c(O)c1`: 6.52 and 4.00.
Take `CC(C)C[C@H](N)C(=O)CCl`: the inhibition is 16% in test [5] and 0% in test [6].
For the molecule `CC(C)C[C@H](NC(=O)OC(C)(C)C)C(=O)CBr`, the inhibition amounted to 65% in test [5] and 69% in test [6].
On the same counts, the results for `CC(C)C[C@H](NC(=O)OCc1ccccc1)C(=O)C=[N+]=[N-]` are 15% and 18%.
On the same counts, the results for `C[C@H](NC(=O)OCc1ccccc1)C(=O)CCl` are 71% and 44%.
The matching figures for `O=C(CCl)[C@H](Cc1c[nH]c2ccccc12)NOCc1ccccc1`: 6% and 10%.
For the molecule `O=C(CCl)[C@H](Cc1ccccc1)NOCc1ccccc1`, the inhibition was determined as 21% in test [5] and 15% in test [6].
The matching figures for `CC(=O)N[C@@H](C)C(=O)N[C@@H](C)C(=O)N[C@@H](Cc1ccccc1)C(=O)N[C@H](C(=O)CCl)[C@@H](C)O` (Ac-AAFT-CH2Cl): 4% and 10%.
On the same counts, the results for `CC(=O)N[C@@H](Cc1ccccc1)C(=O)NCC(=O)N[C@@H](C)C(=O)N[C@@H](CC(C)C)C(=O)CCl` (Ac-FGAL-CH2Cl) are 59% and 29%.
The matching figures for `CC(=O)NCC(=O)NCC(=O)N[C@@H](C)C(=O)N[C@@H](Cc1ccccc1)C(=O)CCl` (Ac-GGAF-CH2Cl): 5% and 0%.
The molecule `O=C1c2c(O)cc(O)cc2O[C@H](c2ccc(O)c(O)c2)[C@H]1O` [(+)-TAXIFOLIN] displayed an IC50 in test [4] of 3 ×10² ug/ml.
In test [3], `Nc1ncnc2c1ncn2[C@@H]1O[C@H](COP(=O)(O)O)[C@@H](O)[C@H]1O` [ADENOSINE PHOSPHATE] showed a pIC50 of 7.00.
Regarding `O=C(O)/C=C/c1ccc(O)cc1` [COUMARIC ACID], in test [4], the IC50 was greater than 300 µg/mL.
Turning to `Nc1ncnc2c1ncn2[C@@H]1O[C@H](COP(=O)(O)OP(=O)(O)OP(=O)(O)OP(=O)(O)OC[C@H]2O[C@@H](n3cnc4c(N)ncnc43)[C@H](O)[C@@H]2O)[C@@H](O)[C@H]1O` [DIADENOSINE TETRAPHOSPHATE], in test [3], the pIC50 is 4.34.
Consider `COc1cc(/C=C/C(=O)O)ccc1O` [FERULATE], for which the IC50 in test [4] is greater than 300 µg/mL.
On the same count and under the same terms, the figure for `O=C1c2ccc(O)cc2O[C@H](c2ccc(O)c(O)c2)[C@H]1O` [FUSTIN] is greater than 5 ×10² ug/ml; for `O=C1C[C@@H](c2ccc(O)cc2)Oc2cc(O)cc(O)c21` [NARINGENIN] it is 8 ×10¹ ug/ml; for `Oc1cc(O)cc(/C=C/c2ccc(O)c(O)c2)c1` [PICEATANNOL] it is 4 µg/mL (≈ 16.4 µM).
The same measure, in the same setting: the result for `O=C1C[C@@H](c2ccccc2)Oc2cc(O)cc(O)c21` [PINOCEMBRIN] reads greater than 5 ×10² ug/ml.

By pIC50 is commonly meant −log10 of the IC50, conventionally taken in molar units. Higher therefore signals a small IC50. Broadly, the inhibition is the change of the read-out against control, counted positive when it falls.
